Reference: patent US20160030561A1, “Methods of Treating Pancreatic Cancer” (ONCOMED PHARMACEUTICALS, INC., priority 2013, published 2016)
“Also recorded” adds a separate entry of the source. Where a SMILES comes first, the peptide text is derived from it. [ ]: non-standard residue; d: D form. The star is where a group is joined. Nle = CCCC[C@H](N)C(=O)O; Cbz = O=C(OCc1ccccc1)*

What was measured:
[1] = test system: medulloblastoma; details: cited from earlier work
[2] = test system: T-ALL; details: T-ALL animal model; cited from earlier work
[3] = test system: Ras-transformed fibroblasts; details: cited from earlier work
[4] = test system: tumor cell lines that overexpressed NOTCH3; details: tumor cell lines that overexpressed NOTCH3, not those with minimal NOTCH3 expression; cited from earlier work
[5] = test system: melanoma and Kaposi sarcoma; details: cell lines and/or xenografts in mice from melanoma and Kaposi sarcoma; cited from earlier work
[6] = test system: pancreatic tumors with high NOTCH3 gene expression; test: In vivo xenograft assay, panel of pancreatic tumors with high NOTCH3 gene expression; set-up: species or system NOD-SCID mice; details: treatment with OMP-59R5 and gemcitabine; NOTCH3 cut-off value of 500
Experimental: (§1) 20,000 OMP-PN8 tumor cells were injected into NOD-SCID mice. Tumors were allowed to grow 22 days until they had reached an average volume of 125 mm^3. […] Antibodies were dosed every other week at 40 mg/kg. Gemcitabine was dosed at 20 mg/kg weekly.

[7] = test system: UM-PE13 breast (NOTCH3 high expressing) tumor cells; test: In vivo xenograft assay, UM-PE13 breast tumor; set-up: species or system NOD-SCID mice; details: FIG. 1D
Experimental: (§2) Antibodies were dosed weekly at 20 mg/kg. Taxol was dosed at 10 mg/kg weekly.

[8] = test system: breast or lung tumors with high NOTCH3 gene expression; test: In vivo xenograft assay, panel of breast or lung tumors with high NOTCH3 gene expression; set-up: species or system NOD-SCID mice; details: OMP-59R5 in combination with a chemotherapeutic agent (taxol); NOTCH3 cut-off value of 500
Experimental: as §2

[9] = test system: OMP-Lu40 lung (NOTCH3 low expressing) tumor cells; test: In vivo xenograft assay, OMP-Lu40 lung tumor; set-up: species or system NOD-SCID mice; details: in combination with taxol; antibody 20 mg/kg weekly, taxol 10 mg/kg weekly; FIG. 1F
Experimental: as §2

[10] = test system: OMP-Lu53 lung (NOTCH3 high expressing) tumor cells; test: In vivo xenograft assay, OMP-Lu53 lung tumor; set-up: species or system NOD-SCID mice; details: in combination with taxol; antibody 40 mg/kg every other week, taxol 10 mg/kg weekly; FIG. 1G
Experimental: Antibodies were dosed every other week at 40 mg/kg. Taxol was dosed at 10 mg/kg weekly.

[11] = test system: UM-T1 breast (NOTCH3 high expressing) tumor cells; test: In vivo xenograft assay, UM-T1 breast tumor; set-up: species or system NOD-SCID mice; details: FIG. 1E
Experimental: Tumors were allowed to grow 28 days until they had reached an average volume of 120 mm^3. […] Antibodies were dosed weekly at 20 mg/kg. Taxol was dosed at 10 mg/kg weekly.

[12] = test system: OMP-PN11 tumor cells; test: In vivo xenograft assay, OMP-PN11 pancreatic tumor; set-up: species or system NOD-SCID mice; details: FIG. 1C
Experimental: 50,000 OMP-PN11 tumor cells were injected into NOD-SCID mice. Tumors were allowed to grow 21 days until they had reached an average volume of 120 mm^3. […] Antibodies were dosed every other week at 40 mg/kg. Gemcitabine was dosed at 20 mg/kg weekly.

[13] = test system: OMP-PN17 pancreatic tumor; test: In vivo xenograft assay, OMP-PN17 pancreatic tumor; set-up: species or system NOD-SCID mice; details: FIG. 1B
Experimental: as §1
The ability of anti-NOTCH2/3 OMP-59R5 antibody to inhibit the in vivo growth of OMP-PN17 pancreatic tumor was determined using substantially identical methods.

[14] = test system: OMP-PN8 tumor cells; test: In vivo xenograft assay, OMP-PN8 pancreatic tumor; set-up: species or system NOD-SCID mice
Experimental: as §1
Tumors were allowed to grow 26 days until they had reached an average volume of 110 mm^3. Tumor bearing mice were randomized into 3 groups (n=9 mice per group) and treated with control antibody, gemcitabine, plus ABRAXANE™ (albumin bound paclitaxel), or the combination of OMP-59R5 anti-NOTCH2/3 antibody and gemcitabine plus ABRAXANE™ OMP-59R5 was dosed every other week at 40 mg/kg. Gemcitabine was dosed at 10 mg/kg weekly and ABRAXANE™ at 30 mg/kg weekly. […] The top and bottom graphs show data obtained from the same experiment on different scales.

[15] = test system: intestinal adenomas; details: intestinal adenomas in Apc−/− (min) mice; cited from earlier work
[16] = as a single agent, 20 mg/kg weekly
[17] = in combination with taxol, antibody 20 mg/kg weekly, taxol 10 mg/kg weekly

For `C[C@H](NC(=O)Cc1cc(F)cc(F)c1)C(=O)N[C@H](C(=O)OC(C)(C)C)c1ccccc1` [DAPT, N-[N-(3,5-difluorophenacetyl)-L-alanyl]-S-phenylglycine t-butyl ester], the Medulloblastoma growth [1] is listed as “marked reduction” and the “Cell cycle arrest and apoptosis” value [2] is listed as “induced G0-G1 cell cycle arrest and apoptosis”.

In the case of `CCC(C)C(NC(=O)OCc1ccccc1)C(=O)NC(C=O)CC(C)C` (stereo not drawn) [IL-X, cbz-IL-CHO] (Cbz-Ile-Leu-aldehyde; configuration not given here), the Antineoplastic activity [3] is given as “NOTCH1-dependent antineoplastic activity”.

For `CCCC[C@@H](C=O)NC(=O)[C@H](CC(C)C)NC(=O)[C@H](CC(C)C)NC(=O)OCc1ccccc1` [z-Leu-leu-Nle-CHO] (Cbz-Leu-Leu-[Nle]-aldehyde), the “Cell proliferation and apoptosis” value [4] is listed as “suppression of cell proliferation and induction of apoptosis” and the Tumor growth [5] is listed as “suppress tumor growth”.

For “OMP-59R5 + gemcitabine: combination treatment with OMP-59R5 anti-NOTCH2/3 antibody and gemcitabine”, the “Pancreatic tumors with high NOTCH3 gene expression responsive in vivo” value [6] was 9 out of the 10.

For “OMP-59R5: 59R5 IgG2 anti-NOTCH2/3 antibody, heavy and light chain of SEQ ID NO:30 and SEQ ID NO:33; ATCC PTA-10170”, the UM-PE13 tumor growth [7, 16] was “strongly inhibited”, the UM-PE13 tumor growth [7, 17] was “strongly inhibited” and the “Breast or lung tumors with high NOTCH3 gene expression responsive” value [8] was 5 out of 14. For the same compound, the OMP-Lu40 tumor growth [9] was “strongly inhibited”, the OMP-Lu53 tumor growth [10] was “no effect” and the UM-T1 tumor growth [11, 16] was “no effect”. The UM-T1 tumor growth [11, 17] was “no effect”, the OMP-PN11 tumor growth ([12]; as a single agent, 40 mg/kg every other week) was “no effect” and the OMP-PN11 tumor growth ([12]; in combination with gemcitabine, antibody 40 mg/kg every other week, gemcitabine 20 mg/kg weekly) was “no effect”. The OMP-PN17 tumor growth ([13]; as a single agent) was “strongly inhibited”, the OMP-PN17 tumor growth ([13]; in combination with gemcitabine) was “strongly inhibited” and the OMP-PN8 tumor growth ([14]; as a single agent, 40 mg/kg every other week, FIG. 1A) was “strongly inhibited”. The “Activity on OMP-PN8 tumor growth compared with gemcitabine plus ABRAXANE alone” value ([14]; in combination with gemcitabine plus ABRAXANE, FIG. 9) was “more active”, the OMP-PN8 tumor growth ([14]; in combination with gemcitabine plus ABRAXANE, OMP-59R5 40 mg/kg every other week, gemcitabine 10 mg/kg weekly, ABRAXANE 30 mg/kg weekly, FIG. 9) was “strongly inhibited; also recorded: active” and the OMP-PN8 tumor growth ([14]; in combination with gemcitabine, antibody 40 mg/kg every other week, gemcitabine 20 mg/kg weekly, FIG. 1A) was “strongly inhibited”.

In the case of dibenzazepine, the “Epithelial cell proliferation and goblet cell differentiation” value [15] is listed as “inhibit epithelial cell proliferation and induce goblet cell differentiation”.
